In brackets after ≈: the same amount, converted by molar mass.

As a reminder, the MIC is the lowest concentration that inhibits growth of the organism.

One test deals with S. aureus, E. faecalis, S. pyogenes and S. pneumoniae. Briefly: Broth microdilution MIC (NCCLS), gram-positive strains. Format: cell-based.
Conditions: not given
On the procedure:
Representative bis-quinazolines were tested for antibacterial activity using the […] microdilution method to determine their minimum inhibitory concentrations (MICs). All compounds were tested using standard methods in accordance with NCCLS guidelines (National Committee for Clinical Laboratory Standards. 2003. Methods for dilution antimicrobial susceptibility testing for bacteria that grow aerobically. Approved Standard M-7 A-6, NCCLS, Wayne, Pa.). The bacterial strains used in the susceptibility tests were obtained from the American Type Culture Collection (ATCC) and included resistant phenotypes such as oxacillin-resistant S. aureus (ORSA) and vancomycin-resistant enterococci (VRE). The minimum bactericidal concentrations (MBCs) were determined for selected organisms. The effect of protein binding on the antibacterial activity of representative bis-quinazolines were determined by conducting MIC tests in the presence of human serum.
For orientation: Dilution methods test growth across graded concentrations, often in twofold steps.
The molecule `COc1cccc2c(O)nc(Nc3nc(C)c4ccc5c(c4n3)OCCO5)nc12` [Example 82, 8-Methoxy-2-(8-methyl-2,3-dihydro-1,4-dioxa-5,7-diaza-phenanthren-6-ylamino)-quinazolin-4-ol] registered an MIC of 0.06 to 16 µg/mL (≈ 0.153 to 40.9 µM).

The same test, now with this note: range against some strains of S. aureus, E. faecalis, S. pyogenes and S. pneumoniae; read-out: MIC.
For `COc1ccc2c(C)nc(Nc3nc(O)c4ccccc4n3)nc2c1OC.O=C(O)C(F)(F)F` [Example 74, 2-(7,8-Dimethoxy-4-methyl-quinazolin-2-ylamino)-quinazolin-4-ol trifluoroacetate salt], the MIC fell in the range of 0.06 to 16 µg/mL.
As to `COc1cc(OC)c2nc(Nc3nc(O)c4cc(C)cc(C)c4n3)nc(C)c2c1.O=C(O)C(F)(F)F` [Example 75, 2-(6,8-Dimethoxy-4-methyl-quinazolin-2-ylamino)-6,8-dimethyl-quinazolin-4-ol trifluoroacetate salt], the MIC fell in the range of 0.06 to 16 µg/mL.
`COc1cc2c(C)nc(Nc3nc(O)c4cccc(OC)c4n3)nc2cc1N.O=C(O)C(F)(F)F` [Example 76, 2-(6-methoxy-7-amino-4-methyl-quinazolin-2-ylamino)-8-methoxy-quinazolin-4-ol trifluoroacetate salt]: the MIC lay within 0.06 to 16 µg/mL.
In the case of `COc1ccc2c(C)nc(Nc3nc(O)c4cccc(OC)c4n3)nc2c1OC.O=C(O)C(F)(F)F` [Example 78, 2-(7,8-Dimethoxy-4-methyl-quinazolin-2-ylamino)-8-methoxy-quinazolin-4-ol trifluoroacetate salt], the MIC was 0.06 to 16 µg/mL.
With `COCCOc1cc(OC)cc2c(C)nc(Nc3nc(O)c4cccc(OC)c4n3)nc12.O=C(O)C(F)(F)F` [Example 79, 8-Methoxy-2-[6-methoxy-8-(2-methoxy-ethoxy)-4-methyl-quinazolin-2-ylamino]-quinazolin-4-ol trifluoroacetate salt], the MIC fell in the range of 0.06 to 16 µg/mL.
Consider `COCCOc1ccc2nc(Nc3nc(O)c4cccc(OC)c4n3)nc(C)c2c1.O=C(O)C(F)(F)F` [Example 80, 8-Methoxy-2-[6-(2-methoxy-ethoxy)-4-methyl-quinazolin-2-ylamino]-quinazolin-4-ol trifluoroacetate salt], for which the minimal inhibitory concentration (MIC) fell in the range of 0.06 to 16 µg/mL.
Same read-out and setting: the same measure for `COCCOc1c(OC)ccc2c(C)nc(Nc3nc(O)c4cccc(OC)c4n3)nc12.O=C(O)C(F)(F)F` [Example 81, 8-Methoxy-2-[7-methoxy-8-(2-methoxy-ethoxy)-4-methyl-quinazolin-2-ylamino]-quinazolin-4-ol trifluoroacetate salt]: 0.06 to 16 µg/mL.
For `COc1cc(OC)c2nc(Nc3nc(O)c4c(OC)ccc(OC)c4n3)nc(C)c2c1.O=C(O)C(F)(F)F` [Example 100, 2-(6,8-Dimethoxy-4-methyl-quinazolin-2-ylamino)-5,8-dimethoxy-quinazolin-4-ol trifluoroacetate salt], the MIC lay within 0.06 to 16 µg/mL.
The same measure, in the same setting: then `COc1cc2c(C)nc(Nc3nc(O)c4cccc(OC)c4n3)nc2cc1O.O=C(O)C(F)(F)F` [Example 103, 2-(4-Hydroxy-8-methoxy-quinazolin-2-ylamino)-6-methoxy-4-methyl-quinazolin-7-ol trifluoroacetate salt], with 0.06 to 16 µg/mL; and `COc1cc2nc(Nc3nc(O)c4cc(OCCCl)ccc4n3)nc(C)c2cc1OC.O=C(O)C(F)(F)F` [Example 105, 6-(2-Chloro-ethoxy)-2-(6,7-dimethoxy-4-methyl-quinazolin-2-ylamino)-quinazolin-4-ol trifluoroacetate salt], with 0.06 to 16 µg/mL; and `COc1cc(OC)c2nc(Nc3nc(O)c4cc(OCCCl)ccc4n3)nc(C)c2c1.O=C(O)C(F)(F)F` [Example 107, 6-(2-Chloro-ethoxy)-2-(6,8-dimethoxy-4-methyl-quinazolin-2-ylamino)-quinazolin-4-ol trifluoroacetate salt], with 0.06 to 16 µg/mL.
On the same count and under the same terms, then `COc1cc2nc(Nc3nc(O)c4c5c(ccc4n3)OCO5)nc(C)c2cc1OC.O=C(O)C(F)(F)F` [Example 109, 7-(6,7-Dimethoxy-4-methyl-quinazolin-2-ylamino)-1,3-dioxa-6,8-diaza-cyclopenta[a]naphthalen-9-ol trifluoroacetate salt], with 0.06 to 16 µg/mL.
Still for that read-out and setting: the same measure for `COc1cc(OC)c2nc(Nc3nc(O)c4c(OC(C)C)cccc4n3)nc(C)c2c1.O=C(O)C(F)(F)F` [Example 111, 2-(6,8-Dimethoxy-4-methyl-quinazolin-2-ylamino)-5-isopropoxy-quinazolin-4-ol trifluoroacetate salt]: 0.06 to 16 µg/mL; for `CCOc1cccc2nc(Nc3nc(C)c4cc(OC)cc(OC)c4n3)nc(O)c12.O=C(O)C(F)(F)F` [Example 112, 2-(6,8-Dimethoxy-4-methyl-quinazolin-2-ylamino)-5-ethoxy-quinazolin-4-ol trifluoroacetate salt]: 0.06 to 16 µg/mL; for `COc1cc2nc(Nc3nc(O)c4cc(N5CCOCC5)ccc4n3)nc(C)c2cc1OC.O=C(O)C(F)(F)F` [Example 114, 2-(6,7-Dimethoxy-4-methyl-quinazolin-2-ylamino)-6-morpholin-4-yl-quinazolin-4-ol trifluoroacetate salt]: 0.06 to 16 µg/mL.
Take `COc1cc2c(C)nc(Nc3nc(O)c4cccc(OC)c4n3)nc2c(OC)c1OC.O=C(O)C(F)(F)F` [Example 116, 8-Methoxy-2-(6,7,8-trimethoxy-4-methyl-quinazolin-2-ylamino)-quinazolin-4-ol trifluoroacetate salt]: the MIC is 0.06 to 16 µg/mL.
With `COc1cccc2c(O)nc(Nc3nc(C)c4ccc(F)c(OC)c4n3)nc12.O=C(O)C(F)(F)F` [Example 117, 2-(7-Fluoro-8-methoxy-4-methyl-quinazolin-2-ylamino)-8-methoxy-quinazolin-4-ol trifluoroacetate salt], the MIC fell in the range of 0.06 to 16 µg/mL.
With `COc1cc2c(C)nc(Nc3nc(O)c4cccc(F)c4n3)nc2c(OC)c1OC.O=C(O)C(F)(F)F` [Example 118, 8-Fluoro-2-(6,7,8-trimethoxy-4-methyl-quinazolin-2-ylamino)-quinazolin-4-ol trifluoroacetate salt], the MIC is 0.06 to 16 µg/mL.
Consider `COc1c(F)ccc2c(C)nc(Nc3nc(O)c4cccc(F)c4n3)nc12.O=C(O)C(F)(F)F` [Example 119, 8-Fluoro-2-(7-fluoro-8-methoxy-4-methyl-quinazolin-2-ylamino)-quinazolin-4-ol trifluoroacetate salt], for which the MIC was in the range of 0.06 to 16 µg/mL.
Same read-out and setting: then `COc1ccc2nc(Nc3nc(O)c4cc(N)cc(OC)c4n3)nc(C)c2c1.O=C(O)C(F)(F)F` [Example 123, 6-Amino-2-(6-methoxy-4-methyl-quinazolin-2-ylamino)-8-methoxy-quinazolin-4-ol trifluoroacetate salt], with 0.06 to 16 µg/mL; and `COc1cc(OC)c2nc(Nc3nc(O)c4cc(N)cc(OC)c4n3)nc(C)c2c1.O=C(O)C(F)(F)F` [Example 124, 6-Amino-2-(6,8-dimethoxy-4-methyl-quinazolin-2-ylamino)-8-methoxy-quinazolin-4-ol trifluoroacetate salt], with 0.06 to 16 µg/mL; and `COc1cc(OC)c2nc(Nc3nc(O)c4cc(N)cc(C)c4n3)nc(C)c2c1.O=C(O)C(F)(F)F` [Example 126, 6-Amino-2-(6,8-dimethoxy-4-methyl-quinazolin-2-ylamino)-8-methyl-quinazolin-4-ol trifluoroacetate salt], with 0.06 to 16 µg/mL.
With `COc1cc2c(C)nc(Nc3nc(O)c4cccc(OC)c4n3)nc2cc1N(C)C.O=C(O)C(F)(F)F` [Example 127, 2-(7-Dimethylamino-6-methoxy-4-methyl-quinazolin-2-ylamino)-8-methoxy-quinazolin-4-ol trifluoroacetate salt], the MIC is 0.06 to 16 µg/mL.
Regarding `COc1cc2nc(Nc3nc(O)c4c(N(C)C)cccc4n3)nc(C)c2cc1OC.O=C(O)C(F)(F)F` [Example 128, 2-(6,7-Dimethoxy-4-methyl-quinazolin-2-ylamino)-5-dimethylamino-quinazolin-4-ol trifluoroacetate salt], the MIC fell in the range of 0.06 to 16 µg/mL.
Turning to `COc1cc(OC)c2nc(Nc3nc(O)c4c5c(ccc4n3)OCO5)nc(C)c2c1.O=C(O)C(F)(F)F` [Example 130, 7-(6,8-Dimethoxy-4-methyl-quinazolin-2-ylamino)-1,3-dioxa-6,8-diaza-cyclopenta[a]naphthalen-9-ol trifluoroacetate salt], the MIC was in the range of 0.06 to 16 µg/mL.
Regarding `COc1cc(OC)c2nc(Nc3nc(O)c4c(OC)c(OC)ccc4n3)nc(C)c2c1.O=C(O)C(F)(F)F` [Example 134, 2-(6,8-Dimethoxy-4-methyl-quinazolin-2-ylamino)-5,6-dimethoxy-quinazolin-4-ol TFA salt], the MIC is 0.06 to 16 µg/mL.
For the molecule `COc1cc(OC)c2nc(Nc3nc(O)c4c(OC)c(OC)ccc4n3)nc(C)c2c1.Cl` [Example 135, 2-(6,8-Dimethoxy-4-methyl-quinazolin-2-ylamino)-5,6-dimethoxy-quinazolin-4-ol HCl salt], the MIC was 0.06 to 16 µg/mL.
For the molecule `COc1cc2nc(Nc3nc(O)c4cc(OCCO)ccc4n3)nc(C)c2cc1OC.O=C(O)C(F)(F)F` [Example 136, 2-(6,7-Dimethoxy-4-methyl-quinazolin-2-ylamino)-6-(2-hydroxy-ethoxy)-quinazolin-4-ol trifluoroacetate salt], the MIC fell in the range of 0.06 to 16 µg/mL.
Same read-out and setting: then `COc1cc(OC)c2nc(Nc3nc(O)c4cc(OCCO)ccc4n3)nc(C)c2c1.O=C(O)C(F)(F)F` [Example 137, 2-(6,8-Dimethoxy-4-methyl-quinazolin-2-ylamino)-6-(2-hydroxy-ethoxy)-quinazolin-4-ol trifluoroacetate salt], with 0.06 to 16 µg/mL; and `COc1cc2nc(Nc3nc(O)c4cc(OCCN(C)CCO)ccc4n3)nc(C)c2cc1OC.O=C(O)C(F)(F)F` [Example 139, 2-(6,7-Dimethoxy-4-methyl-quinazolin-2-ylamino)-6-{2-[(2-hydroxy-ethyl)-methyl-amino]-ethoxy}-quinazolin-4-ol trifluoroacetate salt], with 0.06 to 16 µg/mL.

The record behind these values is patent US20050124562A1, “Bis-quinazoline compounds for the treatment of bacterial infections” (priority 2003, published 2005).
